Test results from US6605424B1, “Method of detecting inhibitors of agonist-specific desensitization” (Duke University, priority 1989, dated 2003).
Several values for one entry are separate records, joined by “and”; a condition that tells them apart may be missing. Equal values may be shown once.

Key:
[1] = tested on: β2ARs in intact A431 cells; assay: Desensitization of β2ARs in intact A431 cells; type: cell-based, human; conditions: data not shown
[2] = tested on: β2ARs in permeabilized A431 cells; assay: Phosphorylation of β2ARs in permeabilized A431 cells; type: cell-based, human; conditions: 1 μM heparin
Procedure: FIG. 8. Phosphorylation of β2ARs in permeabilized A431 cells. […] FIG. 8A: Autoradiogram obtained after a 10-day exposure at −70° C. FIG. 8B: Transverse densitometric scan of the autoradiogram.
β2ARs in permeabilized A431 cells were phosphorylated as follows. Permeabilized cells (4×10^8) in 10 ml of KG-A buffer containing 1 mCi (1 Ci=37 GBq) of [γ-^32P]ATP were incubated with or without 1 μM (−)-isoproterenol (and other compounds as indicated) for 10 min at 37° C. All buffers used in these experiments contained 5 μg of soybean tryspin inhibitor, 5 μg of leupeptin, and 10 μg of benzamidine per ml and 0.1 mM phenylmethylsulfonyl fluoride. […] After three identical washing steps, crude membranes were prepared as above.
Aliquots of the samples (≈60 fmol of β2ARs) were desalted over Sephadex G-50 and incubated for 2 hr at 20° C. with 200 pM of the ligand with or without 10 μM alprenolol. Free ligand was removed by desalting as above, and the samples were irradiated with UV light for 3 min. The samples were loaded on the same gel as the samples described above.

[3] = tested on: β2ARs in permeabilized A431 cells; assay: Desensitization of β2ARs in permeabilized A431 cells; type: cell-based, human
βAR kinase [4] = target: T1, βAR kinase (Bos taurus, UniProt P21146); assay: Phosphorylation of rhodopsin (urea-treated rod outer segments) by βAR kinase; type: biochemical, bovine
T1 construct: βAR kinase was purified from bovine cerebral cortex; from tissue; host or cells: bovine cerebral cortex
T1 sequence (P21146 1-689): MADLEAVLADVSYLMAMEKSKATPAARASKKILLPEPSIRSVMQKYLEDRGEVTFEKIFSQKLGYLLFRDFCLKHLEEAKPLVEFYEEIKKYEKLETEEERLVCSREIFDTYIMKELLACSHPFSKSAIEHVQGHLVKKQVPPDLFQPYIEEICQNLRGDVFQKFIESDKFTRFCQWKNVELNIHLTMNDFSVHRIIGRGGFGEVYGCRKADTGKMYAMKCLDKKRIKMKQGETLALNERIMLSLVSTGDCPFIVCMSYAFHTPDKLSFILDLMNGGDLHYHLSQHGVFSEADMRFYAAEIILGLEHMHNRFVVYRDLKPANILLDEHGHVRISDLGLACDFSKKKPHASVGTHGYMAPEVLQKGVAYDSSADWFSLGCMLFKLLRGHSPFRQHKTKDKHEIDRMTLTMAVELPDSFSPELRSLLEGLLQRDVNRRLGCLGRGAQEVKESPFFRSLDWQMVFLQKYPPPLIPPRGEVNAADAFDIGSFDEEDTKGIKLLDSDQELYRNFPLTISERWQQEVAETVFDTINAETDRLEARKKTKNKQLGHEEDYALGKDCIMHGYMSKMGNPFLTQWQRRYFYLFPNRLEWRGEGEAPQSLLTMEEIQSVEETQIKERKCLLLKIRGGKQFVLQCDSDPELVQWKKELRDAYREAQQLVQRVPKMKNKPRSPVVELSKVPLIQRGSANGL

βAR kinase [5] = target: T1, βAR kinase; assay: Phosphorylation of purified reconstituted β2ARs by purified βAR kinase (Example II); type: biochemical, bovine; conditions: for IC50: 50 μM (−)-isoproterenol, read-out: IC50, inhibition of phosphorylation of reconstituted β2ARs by βAR kinase
βAR kinase [6] = target: T1, βAR kinase; assay: βAR kinase inhibition with the βAR as substrate (Example I, data not shown); type: biochemical, bovine
Excerpt: βAR kinase phosphorylates the β2AR, the α2-adrenergic receptor, and rhodopsin in a stimulus-dependent fashion. Rhodopsin was utilized as the substrate in these experiments because of its ease of isolation. However, the inhibitory effects of polyanions observed with βAR kinase-catalyzed phosphorylation of rhodopsin have also been observed using reconstituted β2AR as the substrate.

permeabilized A431 cells = assay: Accumulation of [32P]cAMP in permeabilized cells; type: cell-based, human; conditions: up to 1 μM; presence or absence of isoproterenol

## heparin
[1]
  effect on desensitization in intact cells: Neither compound affected desensitization
[2]
  effect on basal phosphorylation of β2ARs: not affecting basal phosphorylation
[2]; 1 μM isoproterenol, 10 min, three experiments
  reduction of isoproterenol-induced phosphorylation of β2ARs: 50-80%
[3]; 0.1 μM
  Inhibition of Desensitization, %: 102 ± 16%
[3]; 100 nM heparin, 1 μM (−)-isoproterenol
  effect on time course of desensitization: almost completely abolished
[3]; 1 μM (−)-isoproterenol, 10 min, 37° C., read-out: IC50, inhibition of desensitization
  IC50: 21 nM and 20 nM
[3]; at concentrations above 100 nM
  extent of inhibition of desensitization: virtually complete
βAR kinase [4]; ATP 33 to 100 μM
  type of inhibition with respect to ATP: mixed type inhibitor
βAR kinase [4]; rhodopsin 3 to 20 μM
  type of inhibition with respect to rhodopsin: competitive inhibitor
βAR kinase [5]; 0.1 μM
  Inhibition of βAR kinase, %: 96 ± 1%
βAR kinase [5]; listed as heparin
  IC50: 6.1 ± 2 nM
βAR kinase [5]
  IC50: 6 nM
βAR kinase [5]; at 30-100 nM
  extent of inhibition of β2AR phosphorylation: almost complete inhibition
βAR kinase [6]
  IC50: ~30 nM
Permeabilized A431 cells
  effect on [32P]cAMP formation: did not reduce
